Reference: ChEMBL document CHEMBL3259679, “Synthesis of novel tricyclic chromenone-based inhibitors of IRE-1 RNase activity” (J Med Chem, 2014)
Calls of active or inactive are those of the source. No cut-off for these calls is given here.

What was measured:
B-cell [1] = assay: Inhibition of XBP-1s expression in LPS-stimulated wild-type mouse B lymphocytes at 20 uM after 24 hrs by Western blotting analysis
[2] = Drug degradation after 12 hrs by LC-MS analysis; format: physicochemical
B-cell [3] = settings: Mus musculus, 20 uM
[4] = Upregulation of IRE-1 expression in human Jeko cells at 20 uM after 24 hrs by immunoblotting analysis; format: functional, cell-based; settings: JeKo-1
[5] = Upregulation of IRE-1 expression in human Mino cells at 20 uM after 24 hrs by immunoblotting analysis; format: functional, cell-based
Mino [6] = settings: Homo sapiens, 20 uM
JeKo-1 [7] = settings: Homo sapiens, 20 uM
[8] = target: Serine/threonine-protein kinase/endoribonuclease IRE1 (Homo sapiens, UniProt O75460); assay: Inhibition of human recombinant puritin-His-tagged IRE-1 RNase expressed in SF21 cells using XBP-1 RNA stem loop as substrate incubated for 30 mins prior to substrate addition measured after 2 hrs by FRET-suppression assay
Serine/threonine-protein kinase/endoribonuclease IRE1, sequence (O75460 whole entry): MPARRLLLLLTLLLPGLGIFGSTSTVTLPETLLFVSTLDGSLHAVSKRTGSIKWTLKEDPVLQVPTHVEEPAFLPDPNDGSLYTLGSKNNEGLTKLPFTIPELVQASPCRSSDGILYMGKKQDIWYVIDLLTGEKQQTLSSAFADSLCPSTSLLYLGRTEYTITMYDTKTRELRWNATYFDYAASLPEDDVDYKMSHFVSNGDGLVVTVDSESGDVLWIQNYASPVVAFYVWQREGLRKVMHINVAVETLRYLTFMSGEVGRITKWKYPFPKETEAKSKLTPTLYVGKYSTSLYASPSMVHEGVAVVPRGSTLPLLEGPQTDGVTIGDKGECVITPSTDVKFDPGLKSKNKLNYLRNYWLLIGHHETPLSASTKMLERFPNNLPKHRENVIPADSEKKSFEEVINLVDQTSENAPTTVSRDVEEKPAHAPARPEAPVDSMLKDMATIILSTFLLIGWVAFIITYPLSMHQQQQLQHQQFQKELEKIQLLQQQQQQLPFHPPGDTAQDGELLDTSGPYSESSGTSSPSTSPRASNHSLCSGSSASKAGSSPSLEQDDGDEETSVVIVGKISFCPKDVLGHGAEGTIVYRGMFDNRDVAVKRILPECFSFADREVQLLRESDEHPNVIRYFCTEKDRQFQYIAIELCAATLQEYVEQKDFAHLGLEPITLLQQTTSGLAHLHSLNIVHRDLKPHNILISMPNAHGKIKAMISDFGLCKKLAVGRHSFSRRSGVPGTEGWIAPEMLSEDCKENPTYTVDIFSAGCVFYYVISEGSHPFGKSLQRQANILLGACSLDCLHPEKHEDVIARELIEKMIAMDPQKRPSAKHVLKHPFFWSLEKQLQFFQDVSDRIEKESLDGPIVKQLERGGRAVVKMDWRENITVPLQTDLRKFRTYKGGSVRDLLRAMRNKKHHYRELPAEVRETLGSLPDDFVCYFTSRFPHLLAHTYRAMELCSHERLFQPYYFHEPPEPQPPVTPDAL

JeKo-1 [9] = assay: cells; settings: Homo sapiens, JeKo-1, 24 h
[10] = Growth inhibition of human Jeko cells after 48 hrs by XTT assay; format: functional, JeKo-1
Mino [11] = assay: Induction of apoptosis in human Mino cells assessed as PARP cleavage at 50 uM after 72 hrs by immunoblotting analysis; format: functional, cell-based
JeKo-1 [12] = assay: Induction of apoptosis in human Jeko cells assessed as PARP cleavage at 50 uM after 72 hrs by immunoblotting analysis; format: functional, cell-based
[13] = Growth inhibition of human Mino cells after 48 hrs by XTT assay; format: functional

For `C=CCOC(=O)N1CCc2c(c(=O)oc3c(C4OCCCO4)c(O)ccc23)C1`, the inhibition (B-cell [1]) was “Active” and the Stability [2] was “Stable”.

For `C=CCOC(=O)N1CCc2c(c(=O)oc3c(/C=C/C(=O)OCC)c(O)ccc23)C1`, the inhibition (B-cell [3]) was “inactive”.

For `C=CCOC(=O)N1CCc2c(c(=O)oc3c(C=O)c(O)ccc23)C1`, the Activity [4] was “Active”, the Activity [5] was “Active” and the inhibition (Mino [6]) was “Active”. The inhibition (JeKo-1 [7]) was “Active” and the inhibition (B-cell [1]) was “Active”.

For `C=CCOC(=O)N1CCc2c(c(=O)oc3c(C(=O)OC)c(O)ccc23)C1`, the inhibition (B-cell [3]) was “inactive”.

For `C=CCOC(=O)N1CCc2c(c(=O)oc3c(C=O)c(OCc4ccccc4)ccc23)C1`, the IC50 [8] was > 20000 nM.

In the case of `Cc1cc(=O)oc2c(C=O)c(O)ccc12`, the inhibition (B-cell [1]) is reported as “Active” and the IC50 (JeKo-1 [9]) is reported as 1570 nM.

In the case of `CC(=O)N1CCc2c(c(=O)oc3c(C=O)c(O)ccc23)C1`, the Activity [4] is reported as “Active”, the inhibition (B-cell [3]) is reported as “Active” and the Activity [5] is reported as “Active”. For the same compound, the inhibition (Mino [6]) was “Active” and the inhibition (JeKo-1 [7]) was “Active”.

With `C=CCOC(=O)N1CCc2c(c(=O)oc3c(C(=O)O)c(O)ccc23)C1` the inhibition (B-cell [3]) was “inactive”.

With `CN1CCc2c(c(=O)oc3c(C=O)c(O)ccc23)C1` the Activity [4] was “Active”, the inhibition (B-cell [3]) was “Active” and the GI [10] was 66 µM. The Activity [5] was “Active”, the Activity (Mino [11]) was “Active” and the inhibition (Mino [6]) was “Active”. For the same compound, the inhibition (JeKo-1 [7]) was “Active”, the Activity (JeKo-1 [12]) was “Active” and the GI [13] was 55 µM.
